Reference: PubChem BioAssay (NCI)
Several values for one entry are separate records, joined by “and”; a condition that tells them apart may be missing. Equal entries are not always repeated.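 Five compound concentrations were applied to cells in 96-well plates for 48 hours; endpoints were derived by simple linear interpolation of the resulting dose-response curve. GI50 marks 50% less growth. The concentration for full growth arrest is given as TGI.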

Key:
Assay in all cases: NCI anticancer screen, dose series, 48 h
[1] = system: ACHN renal
[2] = system: HCT-116 colon
[3] = system: HCT-15 colon
[4] = system: MOLT-4 leukemia
[5] = system: OVCAR-3 ovarian
[6] = system: PC-3 prostate
[7] = system: SF-295 CNS
[8] = system: SK-MEL-28 melanoma
[9] = system: SNB-75 CNS
[10] = system: UACC-62 melanoma

| Structure (SMILES) | GI50 [1] [µM] | TGI [1] | GI50 [2] [µM] | TGI [2] | GI50 [3] [µM] | TGI [3] | GI50 [4] [µM] | TGI [4] | GI50 [5] [µM] | TGI [5] | GI50 [6] | TGI [6] | GI50 [7] | TGI [7] | GI50 [8] [µM] | TGI [8] | GI50 [9] [µM] | TGI [9] | GI50 [10] [µM] | TGI [10] |
| --- | --- | --- | --- | --- | --- | --- | --- | --- | --- | --- | --- | --- | --- | --- | --- | --- | --- | --- | --- | --- |
| N#Cc1c(O)c2c(c(O)c1C#N)C(=O)c1ccccc1C2=O | 2.72 | 9.96 µM | 1.3 | 2.94 µM | 2.32 | > 28.1 µM | 2.07 | 5.07 µM | 0.745 | 2.94 µM | 1.57 µM | 7.01 µM | 1.88 µM | 14.2 µM | 1.06 | 3.58 µM | 1.37 | 3.94 µM | 1.05 | 2.85 µM |
| CCOC(=O)c1cc(-c2ccc([N+](=O)[O-])cc2)n(-c2ccc(C(=O)O)c(O)c2)c1C | 2.94 | 9.38 µM | 2.78 | 11.6 µM | 3.02 | 12.2 µM | 3.37 | 20.7 µM | 2.86 | 9.53 µM | 2.96 µM | 18.8 µM | 3.72 µM | 19.6 µM | 3.81 | 14.4 µM | 7.65 | 22.1 µM | 3.95 | 15.4 µM |
| O=C(Cc1ccc(/C=C/C(=O)c2ncc[nH]2)cc1)Nc1ccc(Cl)cc1 | 4.04 | 7.66 µM | 0.848 | 3.41 µM | 0.879 | 5.99 µM | 1.8 | 24.2 µM | 1.14 | 4.29 µM | 2.39 µM | 7.45 µM | 3.33 µM | 9.32 µM | 4.81 | 11.7 µM | 3.63 | > 25 µM | 3.94 | 9.48 µM |
| COc1cc2c(c(OC)c1OC)-c1ccc(NCc3ccccc3)c(=O)cc1[C@@H](NC(C)=O)CC2 | 1.39 | > 66.6 µM | 0.419 | > 100 µM | 1.09 | > 48.4 µM | 0.489 | > 87.5 µM | 0.309 | 2.82 µM | 0.406 µM | 43.7 µM | 0.617 µM | 18.3 µM | 0.499 | 31.5 µM | 0.318 | 25.2 µM | 0.526 | 22.4 µM |
| Cn1c(-c2nonc2N)nc2cnccc21 | > 25 | > 25 µM | > 25 | > 25 µM | > 25 | > 25 µM | > 25 | > 25 µM | > 25 | > 25 µM | > 25 µM | > 25 µM | > 25 µM | > 25 µM | > 25 | > 25 µM | > 12.8 | > 24 µM | > 25 | > 25 µM |
| O=C(O)Cc1c[nH]c2ccc(F)cc12 |  | > 100 µM |  | > 100 µM |  | > 100 µM |  | > 100 µM |  | > 100 µM |  | > 100 µM |  | > 100 µM |  | > 100 µM |  | > 100 µM |  | > 100 µM |
| O=c1c(Cl)c(Cl)cnn1-c1ccccc1 |  | 11.6 µM and 13.5 µM |  | 3.5 µM and 6.4 µM |  | 3.51 µM and 5.38 µM |  | 7.19 µM and 4.14 µM |  | 4.22 µM and 3.94 µM | 5.42 µM and 1.77 µM | 12 µM and 3.23 µM | 5.18 µM and 16 µM | 9.7 µM and 32.3 µM |  | 6.54 µM and 7.29 µM |  | 5.71 µM and 29.7 µM |  | 3.34 µM and 5.36 µM |
